ChEMBL document CHEMBL1134303, “Systematic structure-based design and stereoselective synthesis of novel multisubstituted cyclopentane derivatives with potent antiinfluenza activity” (J Med Chem, 2001)

Target: Neuraminidase (Influenza A virus (A/Puerto Rico/8/1934(H1N1)), UniProt P03468)
Assay: Inhibitory activity against influenza A neuraminidase

Chain of Neuraminidase (Influenza A virus (A/Puerto Rico/8/1934(H1N1)), UniProt P03468) (P03468 whole entry): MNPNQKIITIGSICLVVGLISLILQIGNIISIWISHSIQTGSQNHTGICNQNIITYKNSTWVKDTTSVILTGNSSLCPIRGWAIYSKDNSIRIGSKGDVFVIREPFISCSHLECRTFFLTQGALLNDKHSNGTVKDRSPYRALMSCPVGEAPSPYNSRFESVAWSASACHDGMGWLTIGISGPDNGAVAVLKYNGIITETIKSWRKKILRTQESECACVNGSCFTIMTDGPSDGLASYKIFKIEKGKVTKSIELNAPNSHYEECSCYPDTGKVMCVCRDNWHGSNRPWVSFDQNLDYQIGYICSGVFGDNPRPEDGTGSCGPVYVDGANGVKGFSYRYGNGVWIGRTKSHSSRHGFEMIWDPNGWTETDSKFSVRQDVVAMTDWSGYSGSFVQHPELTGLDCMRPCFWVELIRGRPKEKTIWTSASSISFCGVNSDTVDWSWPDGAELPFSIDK

Structure (SMILES)	IC50 [nM]
CCC(CC)[C@H](NC(C)=O)[C@@H]1[C@H](O)[C@@H](C(=O)O)C[C@H]1NC(=N)N [PERAMIVIR ANHYDROUS]	< 1
CCC(CC)[C@H](NC(C)=O)[C@@H]1C[C@@H](C(=O)O)C[C@H]1N=C(N)N	< 1
